Measurements: PMC10363774 (RSC Advances, 2023)

What was measured:
IL-6 = assay: In vitro immunomodulatory assay, IL-6; format: cell-based, human; conditions: HCT-116 cells, 24 h, at the IC50 concentration
[1] = tested on: HCT-116 cells (colon cancer); assay: MTT anti-proliferative assay, HCT-116; format: cell-based; conditions: Homo sapiens, HCT-116, 48 h, read-out: In vitro cytotoxicity IC50 HCT 116
[2] = tested on: MCF-7 cells (breast cancer); assay: MTT anti-proliferative assay, MCF-7; format: cell-based; conditions: Homo sapiens, MCF7, 48 h, read-out: In vitro cytotoxicity IC50 MCF-7

| Structure (SMILES) | Pro-inflammatory factors inhibition IL-6 (IL-6) [pg per mL %] | IC50 [1] [µM] | IC50 [2] [µM] |
| --- | --- | --- | --- |
| C[C@@H]1C[C@H]2[C@@H]3CCC4=CC(=O)C=C[C@]4(C)[C@@]3(F)[C@@H](O)C[C@]2(C)[C@@]1(O)C(=O)CO [Dexamethasone] | 93.15 |  |  |
| CNC(=O)c1cc(Oc2ccc(NC(=O)Nc3ccc(Cl)c(C(F)(F)F)c3)cc2)ccn1 [Sorafenib] |  | 8.96 ± 0.05 | 11.83 ± 0.07 |
